From patent publication US20220338769A1, “METHODS AND APPARATUS FOR SUBSTANCE DELIVERY IN AN IMPLANTABLE DEVICE” (GlySens Incorporated, priority 2021, published 2022)

Experiments:
[1] = cited from earlier work
[2] = Expected patient plasma DXA at the exemplary elution rates; format: in vivo; conditions: below LOQ
Method: With a manufacturing process that consists of at least two months (60 days) from the start of elution until implant, and using data from in vitro release testing, a daily release of between approximately 2 and 5 μg DXA in one exemplary embodiment is expected over the life of the implant (average of approximately 3 μg/day). These exemplary elution rates are within range of the elution rates seen in the above-referenced predicate devices. At these elution rates, it can be reasonably expected that patient plasma DXA levels to be below the 50 pg/mL LOQ. The full modeled release profile is shown in FIG. 2, which illustrates total release 212 of DXA from the implantable sensor device accumulating prior to implantation with, daily release 214 of DXA from the implantable sensor starting at a rate of approximately 4.8 μg per day upon implantation and gradually reducing to below 2.0 μg/day over the period of implantation. In other embodiments, DSP, other dexamethasone compounds, and/or other eluting anti-inflammatory drugs may be used similarly.

[3] = human, in vivo
[4] = cited from earlier work; remark: listed apart in the source

**Q.** With `C[C@@H]1C[C@H]2[C@@H]3CCC4=CC(=O)C=C[C@]4(C)[C@@]3(F)[C@@H](O)C[C@]2(C)[C@@]1(O)C(=O)COP(=O)(O)O` [DSP, dexamethasone sodium phosphate] as the molecule, how does the water solubility [1] read?
**A.** Its water solubility is “highly water soluble”.

**Q.** For `CC(=O)OCC(=O)[C@@]1(O)[C@H](C)C[C@H]2[C@@H]3CCC4=CC(=O)C=C[C@]4(C)[C@@]3(F)[C@@H](O)C[C@@]21C` [DXA, dexamethasone acetate], which “expected patient plasma DXA levels” value [2] is on record?
**A.** The value was less than 50 pg/mL.

**Q.** And the “daily dose required to have a DXA level greater than the LOQ in plasma” value [3]?
**A.** The value was no less than 15 µg.

**Q.** What about the “plasma DXA” value ([4]; one device implanted, no measurable DXA, LOQ = 50 pg/mL) of the same molecule?
**A.** Its value is less than 50 pg/mL.

**Q.** What about the “maximum reported plasma DXA” value ([4]; two devices implanted) of the same molecule?
**A.** Its value is 114 pg/mL.

**Q.** What about the “time DXA measurable in plasma after implant” value ([4]; two devices implanted, some patients) of the same molecule?
**A.** The value was “up to 8 days”.
